Reference: ChEMBL document CHEMBL4265905, “Synthesis and biological evaluation of novel Jiyuan Oridonin A-1,2,3-triazole-azole derivatives as antiproliferative agents” (Eur J Med Chem, 2018)
Activity calls are given as the source filed them. The rule behind the calls is not given here.

Tests used:
[1] = test system: SMMC-7721; experiment: Cell cycle arrest in human SMMC7721 cells assessed as accumulation at S phase at 4 uM after 12 hrs by propidium iodide staining based flow cytometry (reference value: 36.98%); assay type: functional
[2] = test system: SMMC-7721; experiment: Induction of apoptosis in human SMMC7721 cells assessed as viable cells at 2 uM after 12 hrs by Annexin V-FITC/PI staining based flow cytometry (reference value: 95.4%); assay type: functional; settings: SMMC-7721, 12 h, read-out: Activity
[3] = test system: A549; experiment: Antiproliferative activity against human A549 cells after 72 hrs by MTT assay; assay type: functional, cell-based; settings: A549, 72 h
[4] = test system: SMMC-7721; experiment: Induction of apoptosis in human SMMC7721 cells assessed as early apoptotic cells at 2 uM after 12 hrs by Annexin V-FITC/PI staining based flow cytometry (reference value: 2.8%); assay type: functional
[5] = organism: Homo sapiens; experiment: Inhibition of Wnt signaling pathway in human SMMC7721 cells assessed as increase in APC expression level up to 2 uM after 48 hrs by Western blot analysis; assay type: cell-based
[6] = test system: SMMC-7721; experiment: Induction of apoptosis in human SMMC7721 cells assessed as late apoptotic cells at 2 uM after 12 hrs by Annexin V-FITC/PI staining based flow cytometry (reference value: 0.9%); assay type: functional
[7] = test system: SMMC-7721; experiment: Cell cycle arrest in human SMMC7721 cells assessed as accumulation at G2 phase at 4 uM after 12 hrs by propidium iodide staining based flow cytometry (reference value: 18.97%); assay type: functional
[8] = test system: SMMC-7721; experiment: Induction of apoptosis in human SMMC7721 cells assessed as viable cells at 0.5 uM after 12 hrs by Annexin V-FITC/PI staining based flow cytometry (reference value: 95.4%); assay type: functional; settings: SMMC-7721, 12 h, read-out: Activity
[9] = test system: SMMC-7721; experiment: Induction of apoptosis in human SMMC7721 cells assessed as necrotic cells at 0.5 uM after 12 hrs by Annexin V-FITC/PI staining based flow cytometry (reference value: 0.8%); assay type: functional
[10] = test system: ECa-109 cell line; experiment: Antiproliferative activity against human ECA109 cells after 72 hrs by MTT assay; assay type: functional, cell-based; settings: ECa-109, 72 h
[11] = test system: SMMC-7721; experiment: Cell cycle arrest in human SMMC7721 cells assessed as accumulation at G1 phase at 2 uM after 12 hrs by propidium iodide staining based flow cytometry (reference value: 39.51%); assay type: functional
[12] = test system: SMMC-7721; experiment: Induction of apoptosis in human SMMC7721 cells assessed as necrotic cells at 1 uM after 12 hrs by Annexin V-FITC/PI staining based flow cytometry (reference value: 0.8%); assay type: functional
[13] = organism: Homo sapiens; experiment: Inhibition of Wnt signaling pathway in human SMMC7721 cells assessed as increase in GSK3beta phosphorylation level up to 2 uM after 48 hrs by Western blot analysis; assay type: cell-based
[14] = test system: L02; experiment: Cytotoxicity against human HL7702 cells up to 72 hrs by MTT assay; assay type: cell-based; settings: L02, 72 h
[15] = test system: SMMC-7721; experiment: Antiproliferative activity against human SMMC7721 cells after 72 hrs by MTT assay; assay type: functional, cell-based; settings: SMMC-7721, 72 h
[16] = test system: SMMC-7721; experiment: Induction of apoptosis in human SMMC7721 cells assessed as late apoptotic cells at 1 uM after 12 hrs by Annexin V-FITC/PI staining based flow cytometry (reference value: 0.9%); assay type: functional
[17] = test system: SMMC-7721; experiment: Inhibition of colony formation in human SMMC7721 cells after two weeks by crystal violet staining based assay; assay type: functional, cell-based
[18] = organism: Homo sapiens; experiment: Inhibition of Wnt signaling pathway in human SMMC7721 cells assessed as reduction in beta-catenin expression level up to 2 uM after 48 hrs by Western blot analysis; assay type: cell-based
[19] = test system: SMMC-7721; experiment: Cell cycle arrest in human SMMC7721 cells assessed as accumulation at G2 phase at 1 uM after 12 hrs by propidium iodide staining based flow cytometry (reference value: 18.97%); assay type: functional
[20] = test system: SMMC-7721; experiment: Cell cycle arrest in human SMMC7721 cells assessed as accumulation at S phase at 2 uM after 12 hrs by propidium iodide staining based flow cytometry (reference value: 36.98%); assay type: functional
[21] = test system: SMMC-7721; experiment: Cell cycle arrest in human SMMC7721 cells assessed as accumulation at G2 phase at 2 uM after 12 hrs by propidium iodide staining based flow cytometry (reference value: 18.97%); assay type: functional
[22] = test system: SMMC-7721; experiment: Induction of apoptosis in human SMMC7721 cells assessed as viable cells at 1 uM after 12 hrs by Annexin V-FITC/PI staining based flow cytometry (reference value: 95.4%); assay type: functional; settings: SMMC-7721, 12 h, read-out: Activity
[23] = test system: SMMC-7721; experiment: Induction of apoptosis in human SMMC7721 cells assessed as late apoptotic cells at 0.5 uM after 12 hrs by Annexin V-FITC/PI staining based flow cytometry (reference value: 0.9%); assay type: functional
[24] = test system: MGC-803; experiment: Antiproliferative activity against human MGC803 cells after 72 hrs by MTT assay; assay type: functional, cell-based; settings: MGC-803, 72 h
[25] = test system: SMMC-7721; experiment: Induction of apoptosis in human SMMC7721 cells assessed as early apoptotic cells at 0.5 uM after 12 hrs by Annexin V-FITC/PI staining based flow cytometry (reference value: 2.8%); assay type: functional
[26] = test system: SMMC-7721; experiment: Inhibition of colony formation in human SMMC7721 cells assessed as colony formation efficiency at 2 uM after two weeks by crystal violet staining based assay; assay type: functional; set-up: scale not given: the % may be the effect or the level left
[27] = test system: SMMC-7721; experiment: Induction of apoptosis in human SMMC7721 cells assessed as necrotic cells at 2 uM after 12 hrs by Annexin V-FITC/PI staining based flow cytometry (reference value: 0.8%); assay type: functional
[28] = test system: SMMC-7721; experiment: Inhibition of cell migration in human SMMC7721 cells after 24 hrs by wound healing based inverted microscopic analysis; assay type: functional
[29] = test system: PC-3; experiment: Antiproliferative activity against human PC3 cells after 72 hrs by MTT assay; assay type: functional, cell-based; settings: PC-3, 72 h
[30] = organism: Homo sapiens; experiment: Inhibition of Wnt signaling pathway in human SMMC7721 cells assessed as reduction in Dvl2 expression level up to 2 uM after 48 hrs by Western blot analysis; assay type: cell-based
[31] = test system: SMMC-7721; experiment: Cell cycle arrest in human SMMC7721 cells assessed as accumulation at S phase at 1 uM after 12 hrs by propidium iodide staining based flow cytometry (reference value: 36.98%); assay type: functional
[32] = test system: SMMC-7721; experiment: Cell cycle arrest in human SMMC7721 cells assessed as accumulation at G1 phase at 1 uM after 12 hrs by propidium iodide staining based flow cytometry (reference value: 39.51%); assay type: functional
[33] = test system: MCF7; experiment: Antiproliferative activity against human MCF7 cells after 72 hrs by MTT assay; assay type: functional, cell-based; settings: MCF7, 72 h
[34] = test system: SMMC-7721; experiment: Cell cycle arrest in human SMMC7721 cells assessed as accumulation at G1 phase at 4 uM after 12 hrs by propidium iodide staining based flow cytometry (reference value: 39.51%); assay type: functional
[35] = test system: SMMC-7721; experiment: Induction of apoptosis in human SMMC7721 cells assessed as early apoptotic cells at 1 uM after 12 hrs by Annexin V-FITC/PI staining based flow cytometry (reference value: 2.8%); assay type: functional

With `C=C1C(=O)[C@]23[C@H](O)[C@H]1C[C@H](O)[C@H]2[C@]12CCCC(C)(C)[C@H]1C[C@H]3O[C@@H]2OCCCn1cc(CN2C(=O)S/C(=C/C)C2=O)nn1` the Activity [1] was 22.27%, the viability at 2 µM [2] was 68.2% and the IC50 [3] was 3.5 µM. For the same compound, the Activity [4] was 29.2%, the inhibition [5] was “Active” and the Activity [6] was 2.5%. For the same compound, the Activity [7] was 3.97%, the viability at 0.5 µM [8] was 86.2% and the Activity [9] was 1.1%. For the same compound, the IC50 [10] was 2.7 µM, the Activity [11] was 54.97% and the Activity [12] was 1.2%. For the same compound, the inhibition [13] was “Active”, the IC50 [14] was 18.1 µM and the IC50 [15] was 0.2 µM. For the same compound, the Activity [16] was 5.8%, the inhibition [17] was “Dose-dependent effect” and the inhibition [18] was “Active”. For the same compound, the Activity [19] was 37.61%, the Activity [20] was 12.93% and the Activity [21] was 26.8%. It also gave a viability at 1 µM [22] of 79.3%, an Activity [23] of 5.4% and an IC50 [24] of 0.6 µM. For the same compound, the Activity [25] was 7.2%, the Activity [26] was 5.7% and the Activity [27] was 0.1%. The inhibition [28] was “Dose-dependent effect”, the IC50 [29] was 5 µM and the inhibition [30] was “Active”. It also gave an Activity [31] of 13.84%, an Activity [32] of 45.85% and an IC50 [33] of 1.5 µM. For the same compound, the Activity [34] was 75.69% and the Activity [35] was 13.7%.
